pIC50: −log10 of the molar value. Activity calls are given as the source filed them.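 How the source made its calls: active means compounds whose IC50 against parasite growth in infected mouse cells is below 50000 nM; inactive means the rest.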
test system: T. cruzi Tulahuen in NIH-3T3, beta-gal fluorescence, 4 d; assay: T. cruzi intracellular growth inhibition, cell-based (AID 1159559)

Row | Structure (SMILES) | pIC50 | IC50
1 | Cc1cc(C)nc(N2CCC(N(Cc3cccnc3)C(=O)c3cccc(C#N)c3)CC2)n1 | 6.49 | 
2 | COc1ncc(-c2ccc3ncnc(N4CCOCC4)c3c2)cc1NS(C)(=O)=O | 6.30 | 
3 | Cc1ccccc1OCC(=O)N1CCCN(c2cccnn2)CC1 | 6.49 | 
4 | OC1CCC(Nc2nccc(-c3sc(C4CCOCC4)nc3-c3ccc(F)c(F)c3)n2)CC1 (stereo not given) | 6.49 | 
5 | Cc1ccc2sc(NC(=O)Cn3cnc([N+](=O)[O-])n3)nc2c1 | 5.89 | 
6 | CN(C)S(=O)(=O)c1ccc(-c2cnc(N)c(-c3nc4ccc(F)cc4[nH]3)c2)cc1 | 5.89 | 
7 | CNC(=O)Oc1ccc(C(=O)NCc2ccccc2)cc1OC(=O)NC | 4.49 | 
8 | N#Cc1cccc(CN2CCC(c3nc(-c4ccc(C(F)(F)F)nc4)no3)CC2)c1 | 5.70 | 
9 | CN(Cc1ccc(F)cc1)c1ccc(OCC(=O)N2CCCCC2c2cccnc2)nn1 (stereo not given) | 6.49 | 
10 | CCOc1cc(NCCCN2CCN(C)CC2)c2ncccc2c1 | 5.80 | 
11 | O=C(c1cc2cc(Cl)ccc2[nH]1)N1CCCCC1c1cccnc1 (stereo not given) | 6.60 | 
12 | O=S(=O)(NCC(c1cccnc1)N1CCN(c2ccccc2F)CC1)c1ccc(F)cc1 (stereo not given) | 6.30 | 
13 | O=c1cc(NCCCNC2CCOc3c(I)cc(Cl)cc32)[nH]c2ccccc12 (stereo not given) | 6.10 | 
14 | NC(=O)c1ncccc1Nc1nc(NC2CCC(O)CC2)ncc1Br (stereo not given) | 5.80 | 
15 | c1ccc(CNc2cccc3ccncc23)cc1 | 5.20 | 
16 | OCCCNc1nc(Nc2ccncc2)nc2ccccc12 | 6.20 | 
17 | COc1ccc(NS(=O)(=O)c2cc(-c3cc(C)[nH]n3)ccc2C)cc1OC | 5.89 | 
18 | CNc1nc(C)nc(N2CCc3cc(C(=O)NCc4ccc(-c5ccn[nH]5)cc4Cl)ccc32)n1 |  | > 50000 nM (inactive)
19 | CNc1c(C(N)=O)c(-c2ccc3scnc3c2)nn1CC(F)(F)F | 6.89 | 
20 | O=c1[nH]cnc2c([C@@H]3O[C@H](CO)[C@@H](O)[C@H]3O)[nH]nc12 | 6.89 | 
21 | COc1ccc(-c2nc3ncccc3o2)cc1NC(=O)c1cccs1 | 5.70 | 
22 | COc1ccc(CNc2nsc3ccccc23)cc1OC | 5.20 | 
23 | CCOc1ccc(Nc2ccc(S(=O)(=O)N3CCN(C)CC3)cc2[N+](=O)[O-])cc1OCC | 5.10 | 
24 | N#Cc1c(Oc2cccc(Cl)c2)cccc1[N+](=O)[O-] | 6.49 | 
25 | CC(=O)Nc1ccc(-c2noc(CC3CCCN(Cc4cccc(F)c4C)C3)n2)cc1 (stereo not given) | 6.00 | 
26 | Cc1nn(-c2nc(N)nc(-c3ccccn3)n2)c(C)c1Cc1ccccc1 | 5.60 | 
27 | Cc1cc(Br)sc1CNCCCNc1cc(=O)c2ccccc2[nH]1 | 5.80 | 

Row | Structure (SMILES) | pIC50 | IC50
28 | CC(C)Oc1cccc(N2CCC(C(=O)N3CCCN(C(C)C)CC3)CC2)c1 | 5.89 | 
29 | O=[N+]([O-])c1cccc(Nc2cncc(-c3ccccc3CO)c2)c1 | 6.49 | 
30 | CN(CCOc1ccc(Cl)cc1)Cc1nc(N)nc(N(C)C)n1 | 5.30 | 
31 | C=CCn1nc([N+](=O)[O-])nc1Oc1ccc(Cl)cc1Cl | 6.60 | 
32 | Cc1cc(C)cc(NS(=O)(=O)c2cc(-c3cc(C)[nH]n3)ccc2C)c1 | 6.00 | 
33 | COc1ccccc1C1CC(c2ccc(NS(C)(=O)=O)cc2)=NN1C(=O)c1cccs1 (stereo not given) | 4.60 | 
34 | O=S(=O)(NCC(c1cccnc1)N1CCN(c2ccc(F)cc2)CC1)c1cccs1 (stereo not given) | 6.80 | 
35 | Cc1ccc(Nc2nc(-c3ccccn3)cc(N3CCCC(O)C3)n2)cc1 (stereo not given) | 6.30 | 
36 | O=c1cc(NCCCNCc2cc(C(F)(F)F)cs2)[nH]c2ccccc12 | 5.10 | 
37 | CN(C)S(=O)(=O)c1cccc(C(=O)Nc2nc(-c3ccccn3)cs2)c1 | 5.89 | 
38 | CCN(CC)S(=O)(=O)c1ccc(Cn2nc(C(=O)Nc3ccncn3)c3ccccc32)cc1 | 6.49 | 
39 | CC(C)c1cc(C(=O)N2CCCC(c3cc4ncccc4[nH]3)C2)on1 (stereo not given) | 5.70 | 
40 | COc1ccc(CN(C)Cc2ccncc2)cc1-c1ccc(S(=O)(=O)NC2CCC2)s1 | 6.30 | 
41 | O=C(CSc1ccc(-c2ccccn2)nn1)Nc1ccc(Cl)cc1 | 5.60 | 
42 | O=C(COc1ncnc2cc([N+](=O)[O-])ccc12)NC(=O)NC1CCCCC1 | 5.89 | 
43 | COc1ccc(C(C)N(C)c2ncc3c(N)nc(N)nc3n2)cc1F (stereo not given) | 7.10 | 
44 | CC(C)C[C@H](NC(=O)c1ccc(-c2ccccc2)o1)C(=O)NC1(C#N)CC1 | 4.49 | 
45 | Cn1c(CN2CCN(c3ncc(C(F)(F)F)cc3Cl)CC2)nc2ccncc21 | 6.10 | 
46 | Cn1cncc1CN1CCC2(CC1)COC(Cc1ccccc1)C2 (stereo not given) | 6.49 | 
47 | O=C(NCCc1csc(-c2ccc(F)cc2)n1)c1cccs1 | 6.40 | 
48 | COc1ccc(-c2csc(NC(=O)c3ccc([N+](=O)[O-])s3)n2)cc1OC | 7.00 | 
49 | COc1ccc(C(=O)Nc2cc(C(F)(F)F)ccc2N2CCOCC2)c(OC)c1 | 6.00 | 
50 | Cc1ccccc1CNc1cc(C2CC2)nc(-c2nccn2C)n1 | 6.10 | 
51 | CC(=Cc1ccccc1)CN1CCC(=O)N(Cc2cccnc2)CC1 | 6.60 | 
52 | COc1ccc2nccc([C@H](O)CN3CC[C@H](NC(=O)c4ccc(Br)cc4)[C@@H](O)C3)c2n1 | 6.60 | 
53 | COc1ccc(C2CC(c3ccccc3Cl)=NN2C(=O)CNC(=O)C2CCCC2)cc1 (stereo not given) | 5.49 | 
54 | Cc1sc(C)c(C(F)(F)F)c1CNCCCNc1cc(=O)c2ccccc2[nH]1 | 6.10 | 

Row | Structure (SMILES) | pIC50 | IC50
55 | O=c1oc2ccccc2n1C1CCN(Cc2ccccc2-c2cccnc2)CC1 | 6.30 | 
56 | CCOc1ccc(CN(C)Cc2nc(N)nc(Nc3ccc(C)cc3)n2)cc1 | 5.20 | 
57 | CNc1cc(Cn2c(C(=O)c3cc(C)cc(Cl)c3)c(C(C)C)c(=O)[nH]c2=O)ccn1 | 7.40 | 
58 | CN(Cc1cccnc1)Cc1ccc(N2CCN(C(=O)C3(c4ccc(Cl)cc4)CC3)CC2)nc1 | 6.30 | 
59 | CC(=O)NCCNc1cc(-c2ccnc(Nc3cccc(Cl)c3)n2)ccn1 | 6.40 | 
60 | CC(=O)Nc1ccc(Nc2nccc(-c3cnn4ncccc34)n2)cc1C(F)(F)F | 7.30 | 
61 | CC(c1cc(Cl)cc(Cl)c1)N(C)c1ncc2c(N)nc(N)nc2n1 (stereo not given) | 7.20 | 
62 | NS(=O)(=O)c1ccc(Nc2ncc3cccc(OC4CCNCC4)c3n2)cc1 | 5.80 | 
63 | Cc1cc(NC(=O)c2ccc([N+](=O)[O-])s2)ccc1Br | 6.60 | 
64 | CCC(=O)Nc1ccc(-c2nc3ccc(Cl)cc3[nH]2)cc1 | 5.70 | 
65 | O=C(Nc1nc(-c2ccccn2)cs1)N1C[C@H]2C[C@@]2(c2ccccc2)C1 | 6.30 | 
66 | O=C(NCc1nnc2n1CCCCC2)c1ccc(-c2ccc(F)cc2)o1 | 5.89 | 
67 | COc1ccc(Nc2nc(NC3CCC(O)CC3)ncc2Br)c(C(N)=O)c1 (stereo not given) | 5.40 | 
68 | O=c1[nH]ccc2ccc(-c3ccncc3)cc12 | 6.70 | 
69 | O=c1cc(CSc2ccc(Cl)cc2)nc(-c2ccccn2)[nH]1 | 6.00 | 
70 | O=C(NCC1CCCCC1)c1cc(=O)c2ccccc2o1 | 6.40 | 
71 | CC(C)(C)C(=O)NCCc1csc(-c2ccc(F)cc2)n1 | 5.49 | 
72 | Cc1nc(-c2ccncc2)ncc1C(C)NC(=O)c1ccc(Cl)s1 (stereo not given) | 4.60 | 
73 | CS(=O)(=O)c1ccc(Nc2nccc(Nc3n[nH]c4ccc(F)cc34)n2)c(F)c1 | 5.10 | 
74 | Cc1cccc(Nc2nc(-c3ccccn3)cs2)n1 | 6.20 | 
75 | CCN(Cc1ccncc1)Cc1ccc(NC(=O)c2cc(-c3ccc(F)cc3)n[nH]2)cc1 | 6.40 | 
76 | COC(=O)c1ccc(-c2cnc3ccc(NCc4ccccn4)nn23)cc1 | 5.10 | 
77 | Nc1ncnc2c1ncn2[C@@H]1O[C@H](CO)C[C@H]1O | 6.00 | 
78 | Cc1cc(Oc2cc(Cl)c(Cl)cc2Cl)n2ncnc2n1 | 5.30 | 
79 | COc1cc(OC)cc(C(NS(=O)(=O)c2ccc(Cl)c(C(F)(F)F)c2)c2nccn2C)c1 (stereo not given) | 5.40 | 
80 | O=C(Nc1ccc(S(=O)(=O)N2CCCC2)cc1)c1ccc([N+](=O)[O-])s1 | 6.70 | 
